Read-outs that look alike come from different tables or passages of the source.
Tests used:
Type in all cases: cell-based
P. falciparum 3D7-A10 = test: Blood-stage dose-response assay (SYBR Green I, 72 hr), 3D7 / 3D7-A10 parent; conditions: Plasmodium falciparum
Procedure: (§1) The 3D7-A10 clone has been used in previous in vitro drug selection and sequencing efforts ([Cowell et al., 2018]). Dd2 parasites were obtained from T. Wellems (NIAID, NIH). Dd2-B2 is a genetically homogeneous line that was cloned from Dd2 by limiting dilution in the Fidock lab. Parasite strains were cultured in 3-5% human O+ hematocrit in RPMI 1640 (Life Technologies) supplemented with 28 mM NaHCO3, 25 mM HEPES, and hypoxanthine ([…]). Depending on the parasite line, the media either contained gentamycin (25 μg/mL), or no antibiotic and was additionally supplemented with 0.5% AlbuMAX II (Life Technologies) and/or O+ human serum (heat inactivated and pooled). Blood and serum products were obtained from Interstate Blood Bank. Cultures were maintained at 37°C in 1.1% O2, 4% CO2, and 95% N2. Parasite populations were synchronized by 5% sorbitol treatment ([Lambros and Vanderberg, 1979]).
(§2) For in vitro–selected lines, drug susceptibility was measured by SYBR Green I–based assay ([Johnson et al., 2007]; [Smilkstein et al., 2004]). Ring-stage parasites were cultured for 72 hr at 1% hematocrit and 1% starting parasitemia in 384-well black clear-bottom plates containing test compounds plated in triplicate in 12-point serial dilutions. Lysis buffer (0.16% w/v saponin, 1.6% Triton X-100, 5 mM EDTA, and 20 mM Tris-HCl, pH 7.4) with SYBR Green I fluorescent dye (Invitrogen) was added, and fluorescence readings were taken (excitation at 494 nm, emission at 530 nm). Alternatively, Dd2-B2 ring-stage cultures at 0.3% parasitemia and 1% hematocrit were exposed for 72 hr to a range of ten drug concentrations that were 2-fold serially diluted in duplicates along with drug-free controls. Parasite survival was assessed by flow cytometry on an Accuri C6 (BD Biosciences) using SYBR Green and MitoTracker Deep Red FM (Life Technologies) as nucleic acid stain and vital dyes respectively. EC50 values were calculated using a nonlinear regression curve fit in Prism Software version 8 (GraphPad).

P. falciparum Dd2-B2 = test: Blood-stage dose-response assay (72 hr), Dd2 / Dd2-B2 parent; conditions: Plasmodium falciparum
Procedure: as §1, §2

[1] = test system: P. falciparum Dd2:A597V (CRISPR edited PfAcAS); test: Blood-stage dose-response assay, CRISPR-edited Dd2:A597V line; conditions: Plasmodium falciparum, mean ± SD, n bioreplicates
Procedure: as §2
(§3) Mutant PfAcAS-A597V and PfAcAS-T648M parasites were generated using CRISPR/Cas9. The guide RNAs for PfAcAS-A597V (5′-[…]-3′; 5′-[…]-3′) and for PfAcAS-T648M (5′-[…]-3′) were designed using Benchling (https://benchling.com/) to targeting sites in PfAcAS that were 6-14 bp upstream of the A597 codon and 6 bp downstream of the T648 codon respectively. Complementary oligos encoding the gRNA sequences (5′- tatt[…]-3’ / 5’-aaac[…]-3’; 5’-tatt[…]-3’ / 5’-aaac[…]-3’ and 5’- tattg[…]-3’ / 5’-aaac[…]c-3’ ) were phosphorylated using T4 polynucleotide kinase and annealed (95°C for 5 min, then step down of 5°C/min to 25°C) prior to ligation into the BbsI-digested pDC2-coCas9-U6.2-hDHFR plasmid ([Lim et al., 2016]). The donor template for PfAcAS-A597V was synthesized (ThermoFisher) as a 700 bp Genestring fragment spanning position 1468 to 2168 of the PfAcAS gene, and the donor for PfAcAS-T648M synthesized as a 829 bp fragment spanning position 1468 to 2297 and inserted into the AatII/EcoRI sites of the pDC2-coCas9-gRNA-hDHFR plasmid by Gibson assembly. Ring-stage parasites (Dd2) at 5% parasitemia were transfected by electroporation (BioRad Gene Pulser II at 0.310 kV and 950 μF) with 50 μg of each plasmid (plasmid 1: pDC2-coCas9-AcAS-A597V-gRNA1-hDHFR, plasmid 2: pDC2-coCas9-gRNA2-hDHFR, or plasmid 3: pDC2-coCas9-AcAS-T648M-gRNA1-hDHFR), and parasites selected for 10 days with 2.5 nM WR99210 (Jacobus Pharmaceuticals), followed by removal of drug pressure. After confirmation of editing in the bulk culture, clones were isolated by serial limiting dilution and confirmed by Sanger sequencing after PCR amplification from genomic DNA using forward primer 5′-[…]-3′ and reverse primer 5′-[…]-3′ (for A597V) and 5′-[…]-3′ (for T648M).

[2] = test system: P. falciparum Dd2:T648M (CRISPR edited PfAcAS); test: Blood-stage dose-response assay, CRISPR-edited Dd2:T648M line; conditions: Plasmodium falciparum, mean ± SD, n bioreplicates
Procedure: as §2, §3

[3] = mean ± SD, n bioreplicates, read-out: 3D7-A10 parent EC50 ± SD
[4] = DD2, read-out: Dd2-B2 parent EC50 ± SD (nM)

`O=C1C(O)=C([C@H]2CC[C@H](c3ccc(Cl)cc3)CC2)C(=O)c2ccccc21` [Atovaquone, reference compound] gave an EC50 (P. falciparum 3D7-A10; [3]) of 0.42 ± 0.05 nM, an EC50 (P. falciparum Dd2-B2; [4]) of 0.3 ± 0.13 nM and an EC50 [1] of 0.55 ± 0.35 nM. It also gave an EC50 [2] of 0.69 ± 0.38 nM.
In the case of `CCN(CC)S(=O)(=O)c1ccc(Cl)c(C(=O)Nc2ccc3nc(C)sc3c2)c1` [MMV019721], the EC50 (P. falciparum 3D7-A10; blood-stage parasites in vitro, read-out: P. falciparum 3D7 half-maximal effective concentration [EC50]) is reported as 460 ± 100 nM, the EC50 (P. falciparum 3D7-A10; [3]) is reported as 400 ± 58 nM and the EC50 (P. falciparum Dd2-B2; [4]) is reported as 400 ± 72 nM. For the same compound, the EC50 (P. falciparum Dd2-B2; DD2, read-out: P. falciparum Dd2 EC50) was 400 ± 72 nM, the EC50 (P. falciparum Dd2-B2; DD2, read-out: mean EC50 (nM) ± SD (n)) was 400 ± 72 nM and the EC50 [1] was 6200 nM. For the same compound, the EC50 [2] was 8200 nM.
`O=C(NNC(=O)c1csnn1)c1ccc(Cl)cc1` [MMV084978] gave an EC50 (P. falciparum 3D7-A10; [3]) of 110 ± 28 nM, an EC50 (P. falciparum Dd2-B2; [4]) of 150 ± 36 nM and an EC50 [1] of 43000 nM. It also gave an EC50 [2] of 12000 nM.
